The results in this text go back to ChEMBL document CHEMBL3603798, “Computer-aided identification, synthesis, and biological evaluation of novel inhibitors for botulinum neurotoxin serotype A” (Bioorg Med Chem, 2015).

Calls of active or inactive are those of the source. No cut-off for these calls is given here.

In data set [1] the target is Botulinum neurotoxin type A (Clostridium botulinum, UniProt P0DPI0). As to the kind of experiment: Inhibition of Clostridium botulinum neurotoxin type A light chain by SNAPtide assay.
Data set [2] has as its target Botulinum neurotoxin type A (Clostridium botulinum) (UniProt P0DPI0). The data set can be described thus: Inhibition of Clostridium botulinum neurotoxin type A light chain incoulated in mouse Neuro2a cells assessed as reduction in SNAP-25 cleavage at 10 uM incubated for 48 hrs by SDS-PAGE based Western blotting method. Type of data set: cell-based. (In general: Immunoblotting shows a protein as a band on a membrane.)

Data set [3] is described as follows: Toxicity against mouse Neuro2a cells assessed as reduction in cell viability at 10 to 100 uM incubated for 48 hrs. Type of data set: cell-based. To be noted: n2a.

Sequence of Botulinum neurotoxin type A (P0DPI0 2-448 limits assumed): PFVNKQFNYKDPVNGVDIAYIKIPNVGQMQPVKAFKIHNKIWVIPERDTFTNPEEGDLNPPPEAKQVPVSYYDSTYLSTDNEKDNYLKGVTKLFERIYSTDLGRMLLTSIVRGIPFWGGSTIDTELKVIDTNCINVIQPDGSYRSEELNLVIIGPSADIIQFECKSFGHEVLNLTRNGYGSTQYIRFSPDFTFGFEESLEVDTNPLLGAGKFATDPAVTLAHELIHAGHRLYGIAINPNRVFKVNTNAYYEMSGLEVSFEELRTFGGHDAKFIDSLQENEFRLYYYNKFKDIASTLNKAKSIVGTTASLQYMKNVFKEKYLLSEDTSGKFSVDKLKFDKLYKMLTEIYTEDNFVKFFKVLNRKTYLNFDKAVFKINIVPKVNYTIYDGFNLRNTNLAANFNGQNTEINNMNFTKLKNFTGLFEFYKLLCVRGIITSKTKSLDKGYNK
Sequence of Botulinum neurotoxin type A (Clostridium botulinum) (P0DPI0 2-448 limits assumed): as above

Usually IC50 stands for the midpoint of a concentration-inhibition curve. High values mean weaker potency in that assay, low ones greater potency in that assay. The molecule `COc1cccc(CN2C(=O)c3ccccc3[C@@H]2C(=O)NC2CCC(C)CC2)c1` (stereo not given in full) showed an IC50 in data set [1] of 157 µM.

Molecule `O=c1[nH]c2cc3c(cc2c(=O)n1CCc1nc(-c2ccc(C(F)(F)F)cc2)no1)OCO3` yielded an IC50 in data set [1] of 24 µM. The inhibition result in data set [2] was “Active”. Moreover, the Activity entry in data set [3] is “Non-toxic”.

In the case of `Cc1cc(NC(=S)N(CCCN2CCC[C@@H](C)C2)Cc2cccs2)ccc1Cl`, the IC50 in data set [1] stood at 92 µM. This lies in the double-digit micromolar range.

Molecule `O=C(COc1cccc(/C=C2\NC(=O)N(Cc3ccccc3F)C2=O)c1)Nc1ccc(F)cc1` displayed a 50% inhibitory concentration (IC50) in data set [1] above 50 µM.

Consider `CC[C@@H]1Oc2ccccc2N(CC(=O)NCCCN2CCC(Cc3ccccc3)CC2)C1=O`, for which the IC50 in data set [1] came out at 154 µM.

`O=C(COc1ccc(/C=C2\NC(=O)N(Cc3ccccc3F)C2=O)cc1)Nc1ccc(F)cc1`: the 50% inhibitory concentration (IC50) in data set [1] was determined as 26 µM. This IC50 is about 5.9-fold lower than that of the molecule before.

In turn, `Cc1ccc(-c2nc(SCC(=O)N3CCCC[C@@H]3C)c(S(=O)(=O)c3ccccc3)[nH]2)cc1` had a concentration for half-maximal inhibition (IC50) in data set [1] of 159 µM.

With `O=c1c2cc3c(cc2n(Cc2nc(-c4ccc(C(F)(F)F)cc4)no2)c(=O)n1Cc1nc(-c2ccc(C(F)(F)F)cc2)no1)OCO3`, half-maximal inhibition in data set [1] (IC50) was put at 16 µM. Against the preceding molecule, the IC50 is about 9.9-fold lower.

Consider `O=C(COc1ccccc1/C=C1\NC(=O)N(Cc2ccccc2F)C1=O)Nc1ccc(F)cc1`, for which the 50% inhibitory concentration (IC50) in data set [1] was 22 µM. The inhibition result in data set [2] is “Active”. The Activity entry in data set [3] was “Non-toxic”.

In turn, `COC(=O)c1c(C)nc2n(CCN3CCCCC3)c3ccccc3n12` yielded an IC50 in data set [1] of 55 µM.

For `N=C(N)NCCC[C@H](NC(=O)[C@@H](N)CCCNC(=N)N)C(=O)NCC(=O)N[C@@H](CS)C(=O)O`, the half-inhibitory concentration (IC50) in data set [1] came out at 31 µM.
